Source: patent US8168642B2, “Dihydropyrimidine compounds and their uses in preparation of medicaments for treating and preventing antiviral diseases” (Beijing Molecule Science and Technology Co., Ltd., priority 2006, dated 2012)

What was measured:
HBV DNA = experiment: Antiviral activity: inhibition of HBV DNA in supernatant of HepG 2.2.15 cells (dot blot hybridization); format: cell-based; conditions: Hepatitis B virus, HepG2.2.15, 192 h, 8 days incubation, HB-specific DNA in supernatant, read-out: IC50 (inhibitory effect on HBV DNA)
Procedure: The antiviral effect of the compound of the present invention is determined according to the methods described by Sells, et al (M. A. Sells, M. L. Chen, G. Proc. Natl. Acad. Sci. 1987, 84, 1005-1009) and Korba, et al (B. E. Korba, J. L. Gerin Antiviral Research 1992, 19, 55-70).
(§1) The antiviral test was carried out in a 96-cell microtiter plate. The first column of the plate only contained a culture medium and HepG 2.2.15 cells, as a blank control.
(§2) First, a stock solution ([…]) of a test compound was dissolved in DMSO, and further diluted with a culture medium for growth of HepG 2.2.15 cells. Usually, the compound of the present invention was transferred by suction at a test concentration of 100 μg/ml (the first test concentration) to each cell of the second column of the microtiter plate, and then diluted with the culture medium for growth plus 2% fetal bovine serum (25 μL), by 2 times once, up to 2^10 times at the maximum.
(§3) Then, 225 μL of a suspension of HepG 2.2.15 cells in the culture medium for growth plus 2% fetal bovine serum (5×10^4 cells/ml) was added to each cell of the 96-cell microtiter plate.
(§4) The test mixture was incubated under the conditions of 37° C., 5% CO2 for 4 days. Then, the supernatant was removed by suction, and to each cell 225 μL of a new-prepared culture medium for growth was added. Again, the compound of the present invention was added with a solution of 25 μL. The obtained mixture was further incubated for 4 days.
Thereafter, the supernatant was collected, and sucked in vacuum to a 96-cell dot blot chamber covered by nylon film (used in accordance with the instructions for use provided by the manufacturer).
Determination of Antiviral Activity
After the supernatant was transferred onto the nylon film of the dot blot device (see the contents hereinabove), the supernatant of HepG 2.2.15 cells was denaturated (1.5 M NaCl/0.5 M NaOH), neutralized (3 M NaCl/0.5 M Tris. HCl, pH 7.5) and washed (2×SSC). Then, the filter film was kept at 120° C. for 2-4 hours, whereby DNA was baked on the filter film.
Usually, viral DNA of HepG 2.2.15 cells treated on the nylon film was detected by using a non-radioactive digoxigenin labeled HB-specific DNA probe. Wherein, each time the probe was labeled with digoxigenin, purified and hybridized according to the directions for use given by the manufacturer.
Briefly, pre-hybridization and hybridization were conducted with 5×SSC, 1× blocking agent, 0.1% N-lauroyl sarcosine, 0.02% SDS and 100 μg sperm DNA of black carp. After pre-hybridization at 60° C. for 30 min, a specific hybridization (at 60° C. for 14 hr) was conducted with 20-40 ng/ml digoxigenin labeled denaturalized HBV specific DNA. Then, the film was washed, followed by HBV DNA detection with digoxigenin antibody.
The immunology detection of digoxigenin labeled DNA was conducted according to the directions for use given by the manufacturer.
Briefly speaking, the film was washed and pre-hybridized with a blocking agent (in accordance with the directions for use given by the manufacturer), and then hybridized with an anti-DIG antibody that had been previously coupled onto an alkaline phosphatase for 30 min. After washing, an alkaline phosphatase substrate CSPD was added, and cultured together with the filter for 5 min, and then wrapped in a plastic film, followed by further culturing at 37° C. for 15 min. The filter was exposed to X-ray, and the chemical luminous signal (culturing for 10 min to 2 hr according to the signal strength) of HB-specific DNA on the film was detected, whereby a half inhibitory concentration (IC50) was calculated.
The half inhibitory concentration (IC50) refers to the concentration of the compound of the present invention which reduces the HB-specific band by 50% as compared with the untreated sample.

HepG 2.2.15 cells = experiment: Cytotoxicity in HepG 2.2.15 cells (cell morphology under microscope after 8 days, Reed&Muench); format: cell-based; conditions: pathological change of cells after 8 days
Procedure: as §1, §2, §3, §4
Prior to collection of the supernatant for determination of the antiviral effect, the change in cytotoxicity of HepG 2.2.15 cells was investigated by using optical microscopic technique or biochemical detection method (e.g., Alamar Blue staining or Trypan Blue staining).
Determination of Cytotoxicity
The substance-induced change in cytotoxicity in HepG 2.2.15 cells or in inhibition of the cells could be determined by using, e.g., optical microscopic technique, and expressed by the change of cell morphology. Such substance-induced changes, e.g., cell lysis, cavity formation or change in cell morphology, in HepG 2.2.15 cells were apparent as compared to the untreated cells.
Taking the observed pathological change of cells as index, the pathological change of cells was observed under microscope after 8 days, a complete destroy being indicated as 4; 75% being indicated as 3; 50% being indicated as 2; 25% being indicated as 1; and no pathological change being indicated as 0. The average extents of pathological change of cells and the inhibition percentages at various concentrations were calculated. According to Reed&Muench method, a half toxic concentration (TC50) and a maximum non-toxic concentration (TC0) were calculated.
TC50 refers to the concentration of the compound of the present invention when 50% of cells have a similar morphology to the corresponding cells as a control.

Row | Structure (SMILES) | melting point | IC50 (HBV DNA) | TD50 (HepG 2.2.15 cells)
1 | CCOC(=O)C1=C(C)NC(c2cscn2)=NC1c1ccc(O)cc1 (centres unmarked) | 213 to 216 °C |  | 
2 | CCOC(=O)C1=C(C)NC(c2cscn2)=NC1c1cccc(Cl)c1 (centres unmarked) | 105 to 108 °C |  | 
3 | CCOC(=O)C1=C(C)NC(c2cscn2)=NC1c1ccccc1F (centres unmarked) | 126 to 128 °C |  | 
4 | CCOC(=O)C1=C(C)NC(c2csc(C)n2)=NC1c1ccc(F)cc1Cl (centres unmarked) | 123 to 125 °C |  | 
5 | CCOC(=O)C1=C(C)NC(c2csc(C)n2)=NC1c1cccc(O)c1 (centres unmarked) | 175 to 178 °C |  | 
6 | CCOC(=O)C1=C(C)NC(c2csc(C)n2)=NC1c1ccc(O)cc1 (centres unmarked) | 208 to 210 °C |  | 
7 | CCOC(=O)C1=C(C)NC(c2csc(C)n2)=NC1c1cccc(Cl)c1 (centres unmarked) | 143 to 144 °C |  | 
8 | CCOC(=O)C1=C(C)N(C(C)=O)C(c2csc(C)n2)=NC1c1cccc(F)c1 (centres unmarked) | 127 to 130 °C |  | 
9 | CCOC(=O)C1=C(C)NC(c2cscn2)=NC1c1cccc(F)c1 (centres unmarked) | 118 to 120 °C |  | 
10 | CCOC(=O)C1=C(C)N(C(C)=O)C(c2csc(C)n2)=NC1c1ccc(F)cc1 (centres unmarked) | 140 to 142 °C |  | 
11 | CCOC(=O)C1=C(C)N(C(C)=O)C(c2csc(C)n2)=NC1c1cccc(C)c1 (centres unmarked) | 113 to 114 °C |  | 
12 | CCOC(=O)C1=C(C)N(C(C)=O)C(c2csc(C)n2)=NC1c1ccc(C)cc1 (centres unmarked) | 187 to 188 °C |  | 
13 | CCOC(=O)C1=C(C)N(C(C)=O)C(c2csc(C)n2)=NC1c1cccc(OC)c1 (centres unmarked) | 114 to 116 °C |  | 
14 | CCOC(=O)C1=C(C)N(C(C)=O)C(c2csc(C)n2)=NC1c1ccc(OC)cc1 (centres unmarked) | 138 to 140 °C |  | 
15 | CCOC(=O)C1=C(C)N(C(C)=O)C(c2csc(C)n2)=NC1c1ccccc1 (centres unmarked) | 140 to 142 °C |  | 
16 | CCOC(=O)C1=C(C)N(C(C)=O)C(c2csc(C)n2)=NC1c1ccc(Cl)cc1 (centres unmarked) | 169 to 171 °C |  | 
17 | CCOC(=O)C1=C(C)NC(c2cscn2)=NC1c1ccc(F)cc1 (centres unmarked) | 118 to 120 °C |  | 
18 | CCOC(=O)C1=C(C)NC(c2csc(N)n2)=NC1c1ccc(F)cc1Cl (centres unmarked) | 95 to 110 °C |  | 
19 | CCOC(=O)C1=C(C)NC(c2ncsc2Cl)=NC1c1ccc(F)cc1Cl (centres unmarked) | 149 to 152 °C |  | 
20 | COC(=O)C1=C(C)NC(c2ncsc2Cl)=NC1c1ccc(F)cc1Cl (centres unmarked) | 98 to 100 °C |  | 
21 | COC(=O)C1=C(C)NC(c2ncsc2Cl)=NC1c1ccc(F)cc1 (centres unmarked) | 118 to 122 °C |  | 
22 | CCOC(=O)C1=C(C)NC(c2cscn2)=NC1c1cccc(C)c1 (centres unmarked) | 133 to 134 °C |  | 

Row | Structure (SMILES) | melting point | IC50 (HBV DNA) | TD50 (HepG 2.2.15 cells)
23 | CCOC(=O)C1=C(C)NC(c2cnc(C)s2)=NC1c1ccc(F)cc1Cl (centres unmarked) | 107 to 111 °C |  | 
24 | CCOC(=O)C1=C(C)NC(c2cnc(Cl)s2)=NC1c1ccc(F)cc1Cl (centres unmarked) | 159 to 162 °C |  | 
25 | COC(=O)C1=C(C)NC(c2cnc(Cl)s2)=NC1c1ccc(F)cc1Cl (centres unmarked) | > 230 °C |  | 
26 | COC(=O)C1=C(C)NC(c2cnc(Cl)s2)=NC1c1ccc(F)cc1 (centres unmarked) | 175 to 178 °C |  | 
27 | CCOC(=O)C1=C(C)NC(c2ncc[nH]2)=NC1c1ccc(F)cc1Cl (centres unmarked) | 157 to 162 °C |  | 
28 | CCOC(=O)C1=C(C)NC(c2nccn2Cc2ccccc2)=NC1c1ccc(F)cc1Cl (centres unmarked) | 114 to 117 °C |  | 
29 | CCOC(=O)C1=C(C)NC(c2nccn2C)=NC1c1ccccc1Cl (centres unmarked) | 124 to 127 °C |  | 
30 | CCOC(=O)C1=C(C)NC(c2ncc[nH]2)=NC1c1ccccc1Cl (centres unmarked) | 121 to 125 °C |  | 
31 | CC1=C(C(=O)OC(C)C)C(c2ccc(F)cc2Cl)N=C(c2c(F)cccc2F)N1 (centres unmarked) | 155 to 158 °C |  | 
32 | CCOC(=O)C1=C(C)NC(c2cscn2)=NC1c1cccc(OC)c1 (centres unmarked) | 140 to 142 °C |  | 
33 | CCOC(=O)C1=C(C)N(C(C)=O)C(c2cscn2)=NC1c1cccc(OC)c1 (centres unmarked) | 130 to 131 °C |  | 
34 | CCOC(=O)C1=C(C)NC(c2cscn2)=NC1c1cccc(O)c1 (centres unmarked) | 180 to 183 °C |  | 
35 | CCOC(=O)C1=C(C)NC(c2cscn2)=NC1c1ccc(F)cc1Cl (centres unmarked) [Example 1, ethyl 2-(thiazol-4-yl)-4-(2-chloro-4-fluorophenyl)-6-methyl-1,4-dihydro-pyrimidin-5-carboxylate] | 140 to 142 °C | 3.35 µM | 50.59 µM
36 | COC(=O)C1=C(C)NC(c2csc(C)n2)=NC1c1ccc(F)cc1Cl (centres unmarked) [Example 29, methyl 2-(2-methylthiazol-4-yl)-4-(2-chloro-4-fluorophenyl)-6-methyl-1,4-dihydro-pyrimidin-5-carboxylate] |  | 8.42 µM | 56.34 µM
37 | CCOC(=O)C1=C(C)NC(c2csc(Cl)n2)=NC1c1ccc(F)cc1Cl (centres unmarked) [Example 33, ethyl 2-(2-chlorothiazol-4-yl)-4-(2-chloro-4-fluorophenyl)-6-methyl-1,4-dihydro-pyrimidin-5-carboxylate] | 141 to 143 °C | 0.87 µM | 7.17 µM
38 | COC(=O)C1=C(C)NC(c2csc(Cl)n2)=NC1c1ccc(F)cc1Cl (centres unmarked) [Example 34, methyl 2-(2-chlorothiazol-4-yl)-4-(2-chloro-4-fluorophenyl)-6-methyl-1,4-dihydro-pyrimidin-5-carboxylate] | 160 to 162 °C | 2.08 µM | 12.35 µM
39 | COC(=O)C1=C(C)NC(c2scnc2C)=NC1c1ccc(F)cc1Cl (centres unmarked) [Example 37, methyl 2-(4-methylthiazol-5-yl)-4-(2-chloro-4-fluorophenyl)-6-methyl-1,4-dihydro-pyrimidin-5-carboxylate] | 145 to 147 °C | 14.6 µM | 101.42 µM
40 | CCOC(=O)C1=C(C)NC(c2scnc2C)=NC1c1ccc(F)cc1Cl (centres unmarked) [Example 38, ethyl 2-(4-methylthiazol-5-yl)-4-(2-chloro-4-fluorophenyl)-6-methyl-1,4-dihydro-pyrimidin-5-carboxylate] | 134 to 139 °C | 2.22 µM | 54.33 µM
41 | COC(=O)C1=C(C)NC(c2sc(C)nc2C)=NC1c1ccc(F)cc1Cl (centres unmarked) [Example 39, methyl 2-(2,4-dimethylthiazol-5-yl)-4-(2-chloro-4-fluorophenyl)-6-methyl-1,4-dihydro-pyrimidin-5-carboxylate] | 116 to 118 °C | 3.2 µM | 165.90 µM
42 | CCOC(=O)C1=C(C)NC(c2sc(C)nc2C)=NC1c1ccc(F)cc1Cl (centres unmarked) [Example 40, ethyl 2-(2,4-dimethylthiazol-5-yl)-4-(2-chloro-4-fluorophenyl)-6-methyl-1,4-dihydro-pyrimidin-5-carboxylate] | 117 to 119 °C | 2.59 µM | 157.42 µM
43 | CCOC(=O)C1=C(C)NC(c2c(F)cc(F)cc2F)=N[C@H]1c1ccc(F)cc1Cl [Example 62, ethyl 4-R-(2-chloro-4-fluorophenyl)-2-(2,4,6-trifluorophenyl)-6-methyl-1,4-dihydro-pyrimidin-5-carboxylate] |  | 2.01 µM | 117.23 µM
